According to US4579848A, “5-substituted[1,2,4]triazolo[1,5-c]pyrimidin-2-amines” (American Cyanamid Company, priority 1984, dated 1986):

Each compound was assayed on immunologically stimulated human basophils (assay: Inhibition of histamine release from immunologically stimulated human basophils). Details: Leukocyte, 1 h; human leukocytes challenged with anti-IgE or antigen, 60 minutes at 37° C.; linear regression; read-out: ED50 (the concentration in μM which causes a 50% inhibition of histamine release).
Format: cell-based
Method: The novel compounds of this invention have been tested by the procedure of Lichtenstein, L. M. and Osler, A. G., J. Exp. Med., 120, 507-530 (1964), which evaluates the ability of compounds to inhibit mediator (histamine) release from immunologically stimulated human basophils.
Eighty milliliters of blood is withdrawn from subjects with known histamine release to anti-IgE, ragweed antigen or other specific allergen, using four 20 ml heparinized tubes. This 80 ml of blood is mixed with 20 ml of saline containing 0.6 g of dextrose and 1.2 g of dextran. The blood is allowed to sediment at room temperature in two 50 ml polycarbonate centrifuge tubes until a sharp interface develops between the red cells and plasma (60-90 minutes). The plasma (top) layer from each tube is withdrawn by pipet and transferred to respective 50 ml polycarbonate tubes. The plasma is centrifuged for 8 minutes at 110X g at 4° C. The supernatant is carefully poured off as completely as possible and the cell button is resuspended in 2-3 ml of Tris-A buffer using a siliconized Pasteur pipet. The resuspension is accomplished by drawing the liquid gently in and out of the pipet, with the tip below the liquid, until an even suspension of cells is obtained. Sufficient Tris-A buffer is then added to bring the volume in the tube to about 45 ml and the tube is centrifuged at 110X g for 8 minutes at 4° C. The supernatant is poured off and the cell button is resuspended and centrifuged as described above. The supernatant is poured off and the cell button is suspended in 2-3 ml of Tris-ACM buffer to make the final volume sufficient to allow addition to the reaction tubes.
Reaction tubes containing anti-IgE or antigens, either alone or with test compound in a total volume of 0.2 ml are prepared and placed in a 37° C. bath. The cells are warmed to 37° C. and frequently swirled to ensure an even suspension, while 1.0 ml aliquots are added to each reaction tube. The tubes are then incubated for 60 minutes at 37° C., vortexing the tubes gently every 15 minutes to keep the cells evenly suspended. When the reaction is complete, the tubes are centrifuged at 4° C. for 10 minutes at 1500 rpm to sediment the cells. One ml aliquots of supernatant are transferred to 12X 75 mm polyethylene tubes and 0.2 ml of 8% perchloric acid is added to each tube. Blanks and totals are included in each test. The blanks have cells and all reagents except antigen or anti-IgE. The totals contain 0.24 ml of 8% perchloric acid, one ml of cells and 0.2 ml of buffer. All samples are then centrifuged to remove the precipitate protein.
This automated method has been described by Siraganian, R. P., in Anal. Biochem., 57, 383 (1974) and J. Immunol. Methods, 7, 283 (1975) and is based on the manual method of Shore, P. A., et al., J. Pharmacol. Exp. Ther., 217, 182 (1959).
The automated system consists of the following Technicon Autoanalyzer II components: Sampler IV, Dual-Speed Proportioning Pump III, Fluoronephelometer with a narrow pass primary filter 7-60 and a secondary filter 3-74, Recorder, and Digital Printer. The manifold used is the one described by Siraganian vide supra, with the following modifications: the dialyzer is omitted; all pumping tubes pass through a single proportioning pump with large capacity and twice the volume of sample is taken for analysis.
The automated chemistry consists of the following steps: Extraction from alkaline saline into butanol, back extraction into dilute hydrochloric acid by addition of heptane, reaction of histamine with o-phthaldialdehyde(OPT) at high pH and conversion of the OPT adduct to a stable fluorophore with phosphoric acid. The reaction product is then passed through the fluorometer. The full scale response is adjusted to 50 ng histamine base with a threshold sensitivity of approximately 0.5 ng.
The instrument blank (wash) is subtracted from the ng histamine of each sample. […]

| SMILES | IC50 [µM] |
| --- | --- |
| CC(=O)Nc1nc2ccnc(-c3cccc(C(F)(F)F)c3)n2n1 | 20 |
| OC(CCl)CNc1nc2ccnc(-c3cccc(C(F)(F)F)c3)n2n1 (centres unmarked) [1-Chloro-3-[[5-[3-(trifluoromethyl)phenyl][1,2,4]triazolo[1,5-c]pyrimidin-2-yl]amino]-2-propanol] | 9.5 |
| CN(C)C(=O)c1cccc(-c2nccc3nc(N)nn23)c1 [3-(2-Amino[1,2,4]triazolo[1,5-c]pyrimidin-5-yl)-N,N--dimethylbenzamide] | 11 |
| Nc1nc2ccnc(-c3cccc(C=O)c3)n2n1 [3-(2-Amino[1,2,4]triazolo[1,5-c]pyrimidin-5-yl)benzaldehyde] | 0.8 |
| CCOC(=O)c1cccc(-c2nccc3nc(N)nn23)c1 [3-(2-amino[1,2,4]triazolo[1,5-c]pyrimidin-5-yl)benzoic acid, ethyl ester] | 11 |
| CCOC(=O)c1ccc(-c2nccc3nc(N)nn23)cc1 [4-(2-amino[1,2,4]triazolo[1,5-c]pyrimidin-5-yl)benzoic acid, ethyl ester] | 16 |
| C#Cc1cccc(-c2nccc3nc(N)nn23)c1 [5-(3-Ethynylphenyl)[1,2,4]triazolo[1,5-c]pyrimidin-2-amine] | 14 |
| Cc1cccc(-c2nccc3nc(N)nn23)c1 [5-(3-Methylphenyl)[1,2,4]triazolo[1,5-c]pyrimidin-2-amine] | 7.8 |
| Nc1nc2ccnc(-c3cccc(Br)c3)n2n1 [5-(3-bromophenyl)[1,2,4]triazolo[1,5-c]pyrimidin-2-amine] | 3.3 |
| Nc1nc2ccnc(-c3cccc(Cl)c3)n2n1 [5-(3-chlorophenyl)[1,2,4]triazolo[1,5-c]pyrimidin-2-amine] | 4.3 |
| Cc1cnccc1-c1nccc2nc(N)nn12 [5-(3-methyl-4-pyridinyl)[1,2,4]triazolo[1,5-c]pyrimidin-2-amine] | 3.8 |
| Nc1nc2ccnc(-c3cccc([N+](=O)[O-])c3)n2n1 [5-(3-nitrophenyl)[1,2,4]triazolo[1,5-c]pyrimidin-2-amine] | 3.8 |
| Nc1nc2ccnc(-c3cccnc3)n2n1 [5-(3-pyridinyl)[1,2,4]triazolo[1,5-c]pyrimidin-2-amine] | 49.4 |
| Nc1nc2ccnc(-c3cc[n+]([O-])cc3)n2n1 [5-(4-Pyridinyl)[1,2,4]triazolo[1,5-c]pyrimidin-2-amine, pyridine-1-oxide] | 4.9 |
| Nc1nc2ccnc(-c3ccc(F)cc3)n2n1 [5-(4-fluorophenyl)[1,2,4]triazolo[1,5-c]pyrimidin-2-amine] | 31 |
| Nc1nc2ccnc(-c3ccncc3)n2n1 [5-(4-pyridinyl)[1,2,4]triazolo[1,5-c]pyrimidin-2-amine] | 33 |
| Nc1nc2ccnc(-c3cc(C(F)(F)F)cc(C(F)(F)F)c3)n2n1 [5-[3,5-bis(trifluoromethyl)phenyl][1,2,4]triazolo[1,5-c]pyrimidin-2-amine] | 0.7 |
| Nc1nc2ccnc(-c3cccc(C(Cl)Cl)c3)n2n1 [5-[3-(dichloromethyl)phenyl][1,2,4]triazolo[1,5-c]pyrimidin-2-amine] | 1.2 |
| Nc1nc2ccnc(-c3cccc(OC(F)F)c3)n2n1 [5-[3-(difluoromethoxy)phenyl][1,2,4]triazolo[1,5-c]pyrimidin-2-amine] | 3 |
| Nc1nc2ccnc(-c3cccc(C(F)(F)F)c3)n2n1 [5-[3-(trifluoromethyl)phenyl][1,2,4]triazolo[1,5-c]pyrimidin-2-amine] | 2.7 |
| Cc1cc2nc(N)nn2c(-c2cccc(C(F)(F)F)c2)n1 [7-methyl-5-[3-(trifluoromethyl)phenyl][1,2,4]triazolo[1,5-c]pyrimidin-2-amine] | 100 |
| Cc1cnc(-c2cccc([N+](=O)[O-])c2)n2nc(N)nc12 [8-Methyl-5-(3-nitrophenyl)[1,2,4]triazolo[1,5-c]pyrimidin-2-amine] | 8.7 |
| Cc1cnc(-c2cccc(C(F)(F)F)c2)n2nc(N)nc12 [8-Methyl-5-[3-(trifluoromethyl)phenyl][1,2,4]triazolo[1,5-c]pyrimidin-2-amine] | 5.6 |
| CNc1nc2ccnc(-c3cccc(C(F)(F)F)c3)n2n1 [N-Methyl-5-[3-trifluoromethyl)phenyl][1,2,4]triazolo[1,5-c]pyrimidin-2-amine] | 16 |
| Cc1ccc(S(=O)(=O)Nc2cccc(-c3nccc4nc(N)nn34)c2)cc1 [N-[3-(2-Amino[1,2,4]triazolo[1,5-c]pyrimidin-5yl)phenyl]-4-methylbenzenesulfonamide] | 1.5 |
| CC(=O)Nc1nc2ccnc(-c3cccc(NS(=O)(=O)c4ccc(C)cc4)c3)n2n1 [N-[5-[3-[[(4-Methylphenyl)sulfonyl]amino]phenyl]-[1,2,4]triazolo[1,5-c]pyrimidin-2-yl]acetamide] | 1.7 |
| CC(=O)Nc1nc2c(C)cnc(-c3cccc([N+](=O)[O-])c3)n2n1 [N-[8-Methyl-5-(3-nitrophenyl)[1,2,4]triazolo[1,5-c]pyrimidin-2-yl]acetamide] | 11 |
| CC(=O)Nc1nc2c(C)cnc(-c3cccc(NS(=O)(=O)c4ccc(C)cc4)c3)n2n1 [N-[8-Methyl-5-[3-[[4-methylphenyl)sulfonyl]amino]phenyl][1,2,4]triazolo[1,5-c]pyrimidin-2-yl]acetamide] | 34.4 |

These compounds were tested on female Hartley-strain guinea pigs (assay: Passive Anaphylaxis Test). Details: oral, one hour before ovalbumin challenge; standard dose 50 mg/kg; ten animals.
Format: in vivo, guinea pig
Design: key: If the Fisher test is significant, the compound is considered active; If the rank sum test is significant, the compound is considered to have weak activity
Method: At -48 hours (relative to antigen challenge at time 0), 2 ml of saline containing 0.2-0.05 IgG hyperimmune serum (depending on batch of antibody used) was injected intraperitoneally (i.p.) into 250-300 g female Hartley-strain guinea pigs. One hour before challenge, the test compound is given to ten animals orally at 4 ml/kg of a suspension in 0.5% carboxymethylcellulose. The standard dose is 50 mg/kg. Ten control animals receive the vehicle only. The challenge consists of an intravenous injection of 0.25-2.0 mg of ovalbumin in one ml of saline. The time to the first observable symptom of anaphylaxis (normally this is a scratching of the nose) and the time to loss of righting reflex are recorded for each animal. Thirty minutes after the challenge the numbers of deceased and living animals are also recorded.
The treated and control groups are compared by a Mann-Whitney rank sum test for the times to symptom and times to collapse. In addition, a Fisher's exact test is done on the number of collapsed vs. noncollapsed for control and treated groups. If the Fisher test is significant, the compound is considered active. If the rank sum test is significant, the compound is considered to have weak activity.

| SMILES | activity in passive anaphylaxis test (Fisher's exact test on collapsed vs. noncollapsed) |
| --- | --- |
| Nc1nc2ccnc(-c3ccccn3)n2n1 [5-(2-pyridinyl)[1,2,4]triazolo[1,5-c]pyrimidin-2-amine] | active |
